Experimental data as given in paper PMC3193053 (Analytical chemistry, 2011).

tested on: VHH T9; experiment: Cross-reactivity of the TCC competitive ELISA set up with VHH T9; type: binding, Lama glama; settings: CR% = IC50 (TCC) ÷ IC50 (cross-reacting compound) × 100

Q: For `O=C(Nc1ccc(Cl)cc1)Nc1ccc(Cl)cc1` [4,4′-Dichlorocarbanilide], which “CR (%)” value is on record?
A: Its value is 13.3%.

Q: Which “CR (%)” value does the source give for `Oc1cc(Cl)ccc1Oc1ccc(Cl)cc1Cl` [Triclosan] here?
A: Its value is <0.1%.

Q: `O=C(Nc1ccc(Cl)c(Cl)c1)Nc1ccc(Cl)cc1O` [2′-OH TCC] was tested. Which “CR (%)” value did it give?
A: The value was 16.9%.

Q: With Dinuron as the compound, how does the “CR (%)” value read?
A: Its value is <0.1%.

Q: `CS(=O)(=O)N1CCC(NC(=O)Nc2ccc(OC(F)(F)F)cc2)CC1` [sEHi, #1709] was tested. Which “CR (%)” value did it give?
A: The value was <0.1%.

Q: `O=C(Nc1ccc(Cl)cc1)Nc1ccc(Cl)c(Cl)c1` [TCC, 3,4,4′-trichlorocarbanilide] was tested. Which “CR (%)” value did it give?
A: The value was 100%.

Q: With `O=C(Nc1ccccc1)Nc1ccccc1` [Carbanilide] as the compound, how does the “CR (%)” value read?
A: Its value is 1.78%.

Q: How did the “CR (%)” value turn out when `CC(=O)N1CCC(NC(=O)Nc2ccc(OC(F)(F)F)cc2)CC1` [sEHi, #1555] was run?
A: The value was <0.1%.

Q: `O=C(Nc1ccc(Cl)c(Cl)c1)Nc1ccc(Cl)c(Cl)c1` [3,3′,4,4′-Tetrachloro-carbanilide] was tested. Which “CR (%)” value did it give?
A: Its value is 2.46%.

Q: Which “CR (%)” value does the source give for `O=C(Nc1ccc(Cl)c(Cl)c1)Nc1ccc(Cl)cc1OS(=O)(=O)O` [Sulfate of 2′-OH TCC] here?
A: Its value is <0.1%.

Q: Which “CR (%)” value does the source give for `O=C(Nc1ccc(Cl)cc1)Nc1ccc(Cl)c(C(F)(F)F)c1` [3-Trifluoromethyl-4,4′-dichlorocarbanilide] here?
A: The value was 6.97%.
